Test [1] has as its target Protein kinase C delta type (Homo sapiens, UniProt Q05655). The test can be described thus: Inhibition of serine/threonine kinase(PKC-delta). Details: species or system Sus scrofa.
For test [2], the target named is Platelet-derived growth factor receptor (Homo sapiens, UniProt P09619+P16234). In words: Inhibition of tyrosine kinase(PDGF-R). The format is protein-complex assay.
The target in test [3] is Protein kinase C alpha type (Homo sapiens, UniProt P17252). The test can be described thus: Inhibition of serine/threonine kinase(PKC-alpha). Details: species or system Sus scrofa.
Test [4] has as its target Epidermal growth factor receptor (Homo sapiens, UniProt P00533). The test can be described thus: Inhibition of tyrosine kinase Epidermal growth factor receptor.
Test [5] has as its target Proto-oncogene tyrosine-protein kinase Src (Homo sapiens, UniProt P12931). In words: Inhibition of tyrosine kinase(c-Src).
Test [6] concerns the target cAMP-dependent protein kinase (PKA) (Homo sapiens, UniProt P22694+P17612+P22612). The test can be described thus: Inhibition of serine/threonine kinase(PKA). Format: protein assay, Oryctolagus cuniculus.

As usually defined, the IC50 is the concentration that gives 50% inhibition.

Chain of Proto-oncogene tyrosine-protein kinase Src (P12931 2-536 limits assumed): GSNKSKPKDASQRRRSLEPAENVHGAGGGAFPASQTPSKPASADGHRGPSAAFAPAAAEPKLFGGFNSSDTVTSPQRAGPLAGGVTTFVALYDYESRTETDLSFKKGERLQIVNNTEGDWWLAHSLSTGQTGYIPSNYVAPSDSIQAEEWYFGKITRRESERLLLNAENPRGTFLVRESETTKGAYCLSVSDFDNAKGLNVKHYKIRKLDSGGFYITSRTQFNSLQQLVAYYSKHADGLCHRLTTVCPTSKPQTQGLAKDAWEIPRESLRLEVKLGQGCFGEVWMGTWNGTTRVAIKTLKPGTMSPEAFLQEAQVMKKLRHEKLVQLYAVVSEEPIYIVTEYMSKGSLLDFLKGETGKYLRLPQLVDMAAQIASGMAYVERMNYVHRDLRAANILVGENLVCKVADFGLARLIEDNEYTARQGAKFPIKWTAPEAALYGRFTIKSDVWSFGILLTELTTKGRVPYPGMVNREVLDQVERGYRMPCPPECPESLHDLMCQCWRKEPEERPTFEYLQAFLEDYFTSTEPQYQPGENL
Chain of Epidermal growth factor receptor (P00533 whole entry): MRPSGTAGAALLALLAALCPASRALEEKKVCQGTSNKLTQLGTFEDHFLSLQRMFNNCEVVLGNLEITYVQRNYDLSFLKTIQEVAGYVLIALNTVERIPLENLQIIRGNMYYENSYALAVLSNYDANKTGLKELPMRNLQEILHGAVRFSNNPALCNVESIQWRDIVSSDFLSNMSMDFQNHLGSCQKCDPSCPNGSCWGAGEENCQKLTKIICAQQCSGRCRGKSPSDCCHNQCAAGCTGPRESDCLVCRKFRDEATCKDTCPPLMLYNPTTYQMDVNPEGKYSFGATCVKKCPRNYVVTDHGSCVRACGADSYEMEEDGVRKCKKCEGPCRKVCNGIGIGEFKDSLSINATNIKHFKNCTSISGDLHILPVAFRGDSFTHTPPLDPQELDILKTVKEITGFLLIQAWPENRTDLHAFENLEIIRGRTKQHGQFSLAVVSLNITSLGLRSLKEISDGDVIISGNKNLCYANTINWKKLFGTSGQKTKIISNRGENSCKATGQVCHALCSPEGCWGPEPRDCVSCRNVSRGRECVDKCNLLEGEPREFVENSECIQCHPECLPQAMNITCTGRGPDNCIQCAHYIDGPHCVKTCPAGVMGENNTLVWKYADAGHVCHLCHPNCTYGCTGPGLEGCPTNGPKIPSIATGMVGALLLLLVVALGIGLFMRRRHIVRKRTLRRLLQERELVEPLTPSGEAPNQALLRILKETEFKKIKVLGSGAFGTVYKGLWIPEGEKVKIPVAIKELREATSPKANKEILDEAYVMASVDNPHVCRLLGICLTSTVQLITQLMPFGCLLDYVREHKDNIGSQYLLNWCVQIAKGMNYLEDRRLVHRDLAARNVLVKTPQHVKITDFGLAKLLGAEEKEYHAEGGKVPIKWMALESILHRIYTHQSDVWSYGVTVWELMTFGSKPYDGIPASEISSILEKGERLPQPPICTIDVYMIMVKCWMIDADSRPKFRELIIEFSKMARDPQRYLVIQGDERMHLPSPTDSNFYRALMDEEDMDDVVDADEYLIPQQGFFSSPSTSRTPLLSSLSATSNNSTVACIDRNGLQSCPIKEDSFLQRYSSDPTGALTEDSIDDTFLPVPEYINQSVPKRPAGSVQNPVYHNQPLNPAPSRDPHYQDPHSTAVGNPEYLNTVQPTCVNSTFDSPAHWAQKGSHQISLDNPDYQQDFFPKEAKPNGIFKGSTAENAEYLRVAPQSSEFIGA
Chain of Protein kinase C delta type (Q05655 whole entry): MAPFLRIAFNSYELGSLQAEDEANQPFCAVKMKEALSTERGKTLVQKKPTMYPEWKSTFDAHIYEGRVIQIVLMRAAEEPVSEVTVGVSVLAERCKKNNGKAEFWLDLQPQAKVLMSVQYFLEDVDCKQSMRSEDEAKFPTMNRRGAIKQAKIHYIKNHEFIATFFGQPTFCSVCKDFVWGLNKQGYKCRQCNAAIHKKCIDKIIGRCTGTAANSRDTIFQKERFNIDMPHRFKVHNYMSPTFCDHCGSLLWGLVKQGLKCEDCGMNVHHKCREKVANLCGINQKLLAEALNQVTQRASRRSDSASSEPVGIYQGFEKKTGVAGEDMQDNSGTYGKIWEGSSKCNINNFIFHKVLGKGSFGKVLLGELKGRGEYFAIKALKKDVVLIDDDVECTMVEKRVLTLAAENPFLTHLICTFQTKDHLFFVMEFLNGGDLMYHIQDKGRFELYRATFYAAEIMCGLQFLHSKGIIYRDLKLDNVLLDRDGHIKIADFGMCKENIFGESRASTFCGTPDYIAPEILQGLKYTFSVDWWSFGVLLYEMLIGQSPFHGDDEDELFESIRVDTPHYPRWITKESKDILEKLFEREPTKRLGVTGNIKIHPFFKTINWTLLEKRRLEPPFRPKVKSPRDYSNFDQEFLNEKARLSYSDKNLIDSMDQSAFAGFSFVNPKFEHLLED

For the compound `Cc1ccc(NC(=O)c2ccccc2)cc1Nc1nccc(-c2cccs2)n1`, the IC50 is above 100 µM in test [1]; above 10 µM in test [2]; above 100 µM in test [3]; above 100 µM in test [4]; above 100 µM in test [5]; above 500 µM in test [6].

Regarding `COc1ccc(NC(=O)c2ccccc2)cc1Nc1nccc(-c2cccnc2)n1`, the IC50 is above 100 µM in test [1]; above 10 µM in test [2]; 10 µM in test [3]; above 100 µM in test [4]; above 500 µM in test [6].

As to `CC(=O)Nc1ccc(C)c(Nc2nccc(-c3cccnc3)n2)c1`, the IC50 in test [1] was above 500 µM; in test [2] it was 50 µM; in test [3] it was above 100 µM; in test [4] it was above 100 µM; in test [5], above 100 µM; in test [6], above 500 µM.

Take `Cc1ccc([N+](=O)[O-])cc1Nc1nccc(-c2cccnc2)n1`: the IC50 was above 500 µM in test [1]; above 100 µM in test [2]; above 500 µM in test [3]; above 100 µM in test [4]; above 100 µM in test [5]; above 500 µM in test [6].

With `O=C(Nc1ccc(Cl)c(Nc2nccc(-c3cccnc3)n2)c1)c1ccccc1`, the IC50 in test [1] is above 100 µM; in test [2], 0.15 µM; in test [3], above 100 µM; in test [4], above 100 µM; in test [6], above 500 µM.

On to `Cc1ccc(N)cc1Nc1nccc(-c2cccnc2)n1`, for which the IC50 in test [1] was above 500 µM; in test [2] it was above 10 µM; in test [3] it was above 100 µM; in test [4], above 100 µM; in test [5], above 100 µM; in test [6], above 500 µM.

Take `Cc1ccc(N(C)C(=O)c2ccccc2)cc1Nc1nccc(-c2cccnc2)n1`: the IC50 in test [1] was above 100 µM; in test [2] it was above 100 µM; in test [3] it was 85 µM; in test [4] it was 49 µM; in test [6] it was above 500 µM.

With `Cc1ccc(NC(=O)c2ccc(Cl)cc2)cc1Nc1nccc(-c2cccnc2)n1`, the IC50 in test [1] is above 500 µM; in test [2] it was 0.01 µM; in test [3], above 100 µM; in test [4], above 100 µM; in test [5], above 100 µM; in test [6], above 100 µM.

In the case of `COc1ccccc1C(=O)Nc1ccc(C)c(Nc2nccc(-c3cccnc3)n2)c1`, the IC50 in test [1] is above 500 µM; in test [2], 0.3 µM; in test [3], above 100 µM; in test [4], above 100 µM; in test [5], above 100 µM; in test [6] it was above 500 µM.

As for `Cc1ccc(NC(=O)c2ccccc2)cc1Nc1nccc(-c2cccnc2)n1`, the 50% inhibitory concentration (IC50) was above 500 µM in test [1], 72 µM in test [3] and above 500 µM in test [6].

In the case of `CNc1ccc(C)c(Nc2nccc(-c3cccnc3)n2)c1`, the IC50 in test [1] was above 100 µM; in test [2], above 10 µM; in test [3], 71 µM; in test [4], above 100 µM; in test [6], above 500 µM.

On to `Cc1ccc(C(=O)Nc2ccc(C)c(Nc3nccc(-c4cccnc4)n3)c2)cc1`, for which the IC50 in test [1] is above 500 µM; in test [2] it was 0.01 µM; in test [3], above 100 µM; in test [4], above 100 µM; in test [5], above 100 µM; in test [6], above 100 µM.

For the compound `Cc1ccc(NC(=O)c2ccc3ccccc3c2)cc1Nc1nccc(-c2cccnc2)n1`, the IC50 is above 500 µM in test [1]; 0.05 µM in test [2]; above 100 µM in test [3]; above 100 µM in test [4]; above 100 µM in test [5]; above 100 µM in test [6].

On to `Cc1ccc(NC(=O)c2ccccc2)cc1Nc1nccc(-c2ccc[n+]([O-])c2)n1`, for which the IC50 in test [1] is above 100 µM; in test [2], above 10 µM; in test [3], above 100 µM; in test [4], above 100 µM; in test [6], above 500 µM.

With `O=C(Nc1cccc(Nc2nccc(-c3cccnc3)n2)c1)c1ccccc1`, the IC50 in test [1] was 23 µM; in test [2], 5 µM; in test [3], 1.2 µM; in test [4], above 50 µM; in test [5], 15.7 µM; in test [6], above 500 µM.

For `Cc1ccc(N(C(=O)c2ccccc2)C(=O)c2ccccc2)cc1Nc1nccc(-c2cccnc2)n1`, the IC50 was above 100 µM in test [1]; 2.5 µM in test [2]; above 100 µM in test [3]; 75 µM in test [4]; above 500 µM in test [6].

(Values after ChEMBL document CHEMBL1159186 (Bioorg Med Chem Lett, 1996).)
